Measured values: US10106539B2, “Spiro-indolines for the treatment and prophylaxis of respiratory syncytial virus infection (RSV)” (REVIRAL LIMITED, priority 2014, dated 2018)
pIC50: −log10 of the molar value.

Columns and labels:
RSV-A5 (6440) = test: RSV plaque reduction assay, RSV-A5 (6440), Vero cells; format: cell-based; conditions: human respiratory syncytial virus, n = 1
Protocol: (§1) Plaque Reduction Assay: […] After an overnight incubation at 37° C. in a humidified 5% CO2 atmosphere, the monolayer of cells should be approximately 90% confluent. Antiviral compounds were titrated in pre-warmed Serum Free (SF) Optimem in a U-bottom 96 well plate. […] Media was then removed from cells and replaced with PBS (100 μl/well). RSV stock was thawed and diluted in SF Optimem media to 4000 PFU/mLl. An equal volume of virus was added to compounds on the titration plate. PBS was removed from cells which were then inoculated with the virus/compound solution (50 μL/well). Cells were incubated for 2 h in a 37° C.+5% CO2 humidified incubator to allow infection. […] Immunostaining Procedure: Media was removed from cells and the monolayer washed with PBS. Cells were fixed with ice cold 80% Acetone in PBS (100 μl/well) for 20 mins at −20° C. […] Blocking solution was removed and plates washed once with PBS-T. Primary antibody in blocking solution was added to plates (50 μl/well) and incubated for 1 h at 37° C. Plates were then washed 3 times with PBS-T. Secondary antibody in blocking solution was added to plates (50 μL/well) and incubated for 1 h at 37° C. in the dark. […] Data Analysis: Images obtained were saved and plaque numbers counted with the aid of computer imaging software. […]

RSV A2 (PRNT1) = test: RSV plaque reduction assay, A2 (PRNT1), Vero cells; format: cell-based, respiratory syncytial virus; conditions: human respiratory syncytial virus, Vero; n = 4
Protocol: Plaque Reduction Assay: […] After an overnight incubation at 37° C. in a humidified 5% CO2 atmosphere, the monolayer of cells should be approximately 90% confluent. Antiviral compounds were titrated in pre-warmed Serum Free (SF) Optimem in a U-bottom 96 well plate. […] Media was then removed from cells and replaced with PBS (100 μl/well). RSV stock was thawed and diluted in SF Optimem media to 4000 PFU/mLl. An equal volume of virus was added to compounds on the titration plate. PBS was removed from cells which were then inoculated with the virus/compound solution (50 μL/well). Cells were incubated for 2 h in a 37° C.+5% CO2 humidified incubator to allow infection. […] Immunostaining Procedure: Media was removed from cells and the monolayer washed with PBS. Cells were fixed with ice cold 80% Acetone in PBS (100 μl/well) for 20 mins at −20° C. […] Blocking solution was removed and plates washed once with PBS-T. Primary antibody in blocking solution was added to plates (50 μl/well) and incubated for 1 h at 37° C. Plates were then washed 3 times with PBS-T. Secondary antibody in blocking solution was added to plates (50 μL/well) and incubated for 1 h at 37° C. in the dark. […] Plates were scanned on the Odyssey Imager (Li-Cor Biosciences) at a resolution of […], medium quality and level 5 intensity in the […]. Data Analysis: Images obtained were saved and plaque numbers counted with the aid of computer imaging software. EC50 values for compounds were derived from dose response curves [three variable log (inhibitor) vs response] obtained using Graphpad Prism software.

[1] = Plasma protein binding (equilibrium dialysis), human; format: in vitro ADME; conditions: plasma (100%), pH 7.4, read-out: PPB fraction unbound, human
Protocol: Protein Binding Determination: Experimental Procedure
Solutions of test compound (5 μM, 0.5% final DMSO concentration) are prepared in buffer (pH 7.4) and 100% species-specific plasma. The experiment is performed using equilibrium dialysis with the two compartments separated by a semi-permeable membrane. The buffer solution is added to one side of the membrane and the plasma solution to the other side. After equilibration, samples are taken from both sides of the membrane. Standards are prepared in plasma and buffer and are incubated at 37° C.
Test compound incubations are performed in duplicate. A control compound is included in each experiment.
The solutions for each batch of compounds are combined into two groups (protein-free and protein-containing), then cassette analysed by LC-MS/MS using two sets of calibration standards for protein-free (7 points) and protein-containing solutions (6 points).

RSV-A5 (6470) = test: RSV plaque reduction assay, RSV-A5 (6470), Vero cells; format: cell-based; conditions: human respiratory syncytial virus, n = 1
Protocol: as §1

RSV = RSV plaque reduction assay (Comparative Example 1, strain not stated); format: cell-based; conditions: human respiratory syncytial virus; read-out: RSV Plaque Reduction assay IC50 (Table 4)
Protocol: Plaque Reduction Assay: […] After an overnight incubation at 37° C. in a humidified 5% CO2 atmosphere, the monolayer of cells should be approximately 90% confluent. Antiviral compounds were titrated in pre-warmed Serum Free (SF) Optimem in a U-bottom 96 well plate. […] Media was then removed from cells and replaced with PBS (100 μl/well). RSV stock was thawed and diluted in SF Optimem media to 4000 PFU/mLl. An equal volume of virus was added to compounds on the titration plate. PBS was removed from cells which were then inoculated with the virus/compound solution (50 μL/well). Cells were incubated for 2 h in a 37° C.+5% CO2 humidified incubator to allow infection. […] Cells were subsequently incubated for 48 h at 37° C.+5% CO2 in a humidified incubator. Immunostaining Procedure: Media was removed from cells and the monolayer washed with PBS. Cells were fixed with ice cold 80% Acetone in PBS (100 μl/well) for 20 mins at −20° C. […] Blocking solution was removed and plates washed once with PBS-T. Primary antibody in blocking solution was added to plates (50 μl/well) and incubated for 1 h at 37° C. Plates were then washed 3 times with PBS-T. Secondary antibody in blocking solution was added to plates (50 μL/well) and incubated for 1 h at 37° C. in the dark. […] Data Analysis: Images obtained were saved and plaque numbers counted with the aid of computer imaging software. […]

[2] = Liver microsomal stability, dog; format: in vitro ADME; conditions: male, Beagle, pooled liver microsomes, pH 7.4, Comparative Example 2, read-out: Liver Microsomal Stability T1/2, dog (Table 5)
Protocol: Microsomal Incubation: Experimental Procedure
Pooled human liver microsomes (pooled male and female), pooled rat liver microsomes (male Sprague Dawley rats) and pooled dog liver microsomes (male Beagle dog) are purchased from a reputable commercial supplier and stored at −80° C. prior to use.
Microsomes (final protein concentration 0.5 mg/mL), 0.1 M phosphate buffer pH 7.4 and test compound (final substrate concentration 3 μM; final DMSO concentration 0.25%) are pre-incubated at 37° C. prior to the addition of NADPH (final concentration 1 mM) to initiate the reaction. The final incubation volume is 50 μL. A control incubation is included for each compound tested where 0.1 M phosphate buffer pH 7.4 is added instead of NADPH (minus NADPH). Two control compounds are included with each species. All incubations are performed singularly for each test compound.
Compounds are incubated for 0, 5, 15, 30 and 45 min. The control (minus NADPH) is incubated for 45 min only. The reactions are stopped by transferring 25 μL of incubate to 50 μL methanol at the appropriate time points. The termination plates are centrifuged at 2,500 rpm for 20 min at 4° C. to precipitate the protein. Following protein precipitation, the sample supernatants are combined in cassettes of up to 4 compounds, internal standard is added and samples analysed by LC-MS/MS. From a plot of ln peak area ratio (compound peak area/internal standard peak area) against time, the gradient of the line is determined. Subsequently, half-life and intrinsic clearance are calculated

NCc1ccc2c(c1)nc(CN1C(=O)C3(CC3)c3ccc(F)cc31)n2CCCC(F)(F)F [Example 1, 1′-{[5-(Aminomethyl)-1-(4,4,4-trifluorobutyl)-1H-1,3-benzodiazol-2-yl]methyl}-6′-fluoro-1′,2′-dihydrospiro[cyclopropane-1,3′-indole]-2′-one]
pIC50 (RSV-A5 (6440)): 8.24
IC90 (RSV-A5 (6440)): 106 nM
pIC50 (RSV A2 (PRNT1)): 8.68
IC90 (RSV A2 (PRNT1)): 13.5 nM
fraction unbound at 5 μM [1]: 0.67
pIC50 (RSV-A5 (6470)): 7.99
IC90 (RSV-A5 (6470)): 81 nM

CC(C)CCn1c(CN2C(=O)C3(CC3)c3ccccc32)nc2cc(CN)ccc21 [RV039, 1′-((5-(aminomethyl)-1-isopentyl-1H-benzo[d]imidazol-2-yl)methyl)spiro[cyclopropane-1,3′-indolin]-2′-one, reference compound]
pIC50 (RSV): 7.51
half-life at 3 μM [2]: > 1.67 h
